Test results from EP1604976A1 (Advance Holdings Limited, priority 2004, dated 2005).
Values after ≈ are worked out from the molar mass of the structure shown. Each block holds one molecule with its values, some of them ahead of it.

Tests used:
[1] = water solubility of products of Formula (I)
[2] = stability of product of Formula (I) in aqueous solution / acid medium; assay type: physicochemical
COX-2 = COX-2 (Homo sapiens, UniProt P35354); details: Famaey 1997; Cullen et al. 1998; cited from earlier work
COX-2, sequence (P35354 18-604): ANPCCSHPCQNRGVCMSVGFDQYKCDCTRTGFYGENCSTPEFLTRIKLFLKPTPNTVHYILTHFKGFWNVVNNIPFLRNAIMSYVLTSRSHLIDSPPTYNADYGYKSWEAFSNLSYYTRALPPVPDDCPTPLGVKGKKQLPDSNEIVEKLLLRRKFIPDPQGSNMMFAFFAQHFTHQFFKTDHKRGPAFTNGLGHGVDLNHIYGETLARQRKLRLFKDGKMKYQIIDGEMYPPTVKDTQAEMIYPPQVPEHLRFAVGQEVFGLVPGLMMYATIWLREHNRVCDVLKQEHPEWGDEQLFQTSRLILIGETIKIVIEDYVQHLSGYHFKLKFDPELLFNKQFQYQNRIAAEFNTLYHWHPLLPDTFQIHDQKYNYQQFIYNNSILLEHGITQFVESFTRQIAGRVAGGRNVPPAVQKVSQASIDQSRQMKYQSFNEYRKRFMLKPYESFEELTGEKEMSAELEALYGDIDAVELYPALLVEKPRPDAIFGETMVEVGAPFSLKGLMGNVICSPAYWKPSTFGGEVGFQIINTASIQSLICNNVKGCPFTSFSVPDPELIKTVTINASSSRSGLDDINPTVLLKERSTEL

- solubility [1]: ~35 mg/mL (≈ 90.1 mM)
- stability of the aqueous solution ([2]; approximately 3.5 wt.% aqueous solution, room temperature, seventh day): still stable on the seventh day
Compound: CS(=O)(=O)N(c1ccc([N+](=O)[O-])cc1Oc1ccccc1)S(=O)(=O)O [Product I in which X is Na]
- effect of acidification of the solution ([2]; acidification to about pH 2 with HCl): decomposition of the product and precipitation of the theoretical quantity of nimesulide

- stability of the acid form ([2]; especially in an acid medium): rather unstable
Compound: CS(=O)(=O)N(c1ccc([N+](=O)[O-])cc1Oc1ccccc1)S(=O)(=O)O [acid form (X = H)]

Compound: CS(=O)(=O)Nc1ccc([N+](=O)[O-])cc1Oc1ccccc1 [nimesulide]
- COX-2 versus COX-1 inhibition preference (COX-2): inhibit preferentially COX-2 more than COX-1
